Common to all, as to type: biochemical
Experiment [1] has as its target T1, porcine pancreatic PLA2 (Sus scrofa, UniProt P00592).
T1 construct: purchased Sigma
The experiment can be described thus: MPLA2 assay: in vitro porcine pancreatic phospholipase A2, mixed micelle design, substrate 2 nM. On the procedure: (§1) Phospholipase A2 activity was measured by a radiochemical assay in which labeled synthetic phosphatidylcholine substrate is converted by porcine pancreatic PLA2 to free radiolabeled arachidonate and lyso PC. Radiolabeled arachidonate is extracted from the reaction mixture and separated from unreacted substrate by column chromatography or TLC. Radioactivity (cpm) in samples is quantitated by liquid scintillation counting. Specific details are as follows:
(§2) Labeled substrate(1-stearyl-2-^3 H-arachidonylphosphatidylcholine; Amersham, sp. act. 84 (uCi/mmole, 0.025 to 0.2 uCi/assay tube and unlabeled substrates (Avanti), in sufficient quantity to give 20,000 cpm to 50,000 cpm and 10 μM to 1,000 μM final concentration/assay tube are dried under a stream of nitrogen. The PLA2 and mPLA2 assays utilized a […] substrate concentration. The mHPLA2 and HPLA2 assays (vida infra) utilized a 10 μM substrate concentration and the SmPLA2 assay utilized a substrate concentration ranging from 100 to 1000 μm. The substrate is then redissolved in 0.1M tris-HCl buffer, pH 9.0 containing 10 mM CaCl2 and 10 mM Na taurocholate detergent. The mixture is sonicated in a Kontes Sonifier to yield a homogeneous dispersion. The "mixed" micellar substrate is clear. An aliquot is reserved for a cpm count (total substrate). The total reaction volume is 500 μL; siliconized glassware or plasticware is used throughout. Enzyme (Sigma, sp. act.>690 U/mg protein and preferably 900 U/mg protein) is diluted 1:750 or 1:1000 in 0.1M tris-HCl buffer, pH 9.0 (without Ca^++ and detergent). Enzyme dilution depends on substrate concentration and required enzyme concentration.
(§3) The substrate in buffer is kept on ice until the reaction is started. The reaction is started by adding 10 μL of diluted enzyme solution to 490 μL of micellar substrate solution. Samples are incubated in a 37° C. water bath for 15 minutes with gentle mixing. The reaction is terminated by the addition of 100 μL of 1M fresh trichloroacetic acid (TCA) solution and chilling the tubes on ice for 30 minutes.
(§4) Samples (600 μL) are extracted with 3 ml CHCl3 /MeOH (2:1) for thin layer chromatography or in hexane/ether (9:1) for column chromatography. The phases are separated by gentle centrifugation at 700 rpm×5'. The organic phase is recovered.
(§5) Labeled arachidonate extracted with CHCl3 /MeOH is separated on silica gel G TLC plates (Analtech). Twenty μL of a 2 mg/ml internal standard solution of arachidonic acid (Sigma) is combined with 2-3 ml of the organic phase. The entire mixture is dried under nitrogen and redissolved in 50 μL of CHCl3 /MeOH (2:1). A 20 μL sample is counted in 10 ml of Beckman Redi-solv HP and spotted on silica gel G plates. The solvent system used to develop the plate is CHCl3 /MeOH/13.5N NH3 /H2 O (70:30:4:1). Plates are developed in a glass chamber for 1-11/2 hours, air dried, and the spots visualized in an iodine vapor chamber. Standards of phosphatidylcholine, lyso PC, and arachidonic acid (Sigma) are made as 2 mg/ml stocks in CHCl3 /MeOH (2:1) and spotted on plates. Spots corresponding to arachidonate and phospholipid are scraped and counted in 10 ml Beckman Redi-Solv HP scintillation fluid.
(§6) Samples are extracted with hexane/ether and the upper organic phase recovered. An aliquot is applied to a Silicar CC4 (Malincrodt) column. Columns are prepared using 1 ml of a 1:1 slurry of silicar CC4 in hexane/ether in a Pasteur pipet (approx. 2 cm height). Columns are rinsed with 500 μL of hexane/ether before adding the sample (300-600 μL) to the column. Columns are eluted with a total of 6 ml of hexane/ether. The 6 ml sample is counted in 10 ml of Beckman Redi-Solv HP scintillation fluid.
(§7) or the phospholipase A2 assay, compounds are prepared as 1 mg/ml stock solutions in MeOH and diluted appropriately in PBS. […]

The target of experiment [2] is T1, porcine pancreatic PLA2. As to the kind of experiment: PLA2 assay: in vitro porcine pancreatic phospholipase A2, preincubation of drug+enzyme, substrate 2 nM. Particulars: subs. con. 2; for IC50: read-out: IC50 (converted). On the procedure: as §1, §2, §3, §4, §5, §6
or the phospholipase A2 assay, compounds are prepared as 1 mg/ml stock solutions in MeOH and diluted appropriately in PBS.

In experiment [3] the target is T1, porcine pancreatic PLA2. As to the kind of experiment: MHPLA2 assay: in vitro porcine pancreatic phospholipase A2, mixed micelle design, [s]=10 μm. Particulars: for inhibition at 10 µg/mL / inhibition at 25 µg/mL: subs. con. 10, read-out: % Inh.; for inhibition at 20 µg/mL: dose 20 μ/ml; for inhibition at 20 µg/mL / % Inh.: subs. con. 10; for IC50: subs. con. 10, read-out: IC50 (converted). On the procedure:
as §1, §2, §3, §4, §5, §6, §7

The mark [4] stands for this setting: dose 10 μ/ml, subs. con. 2, read-out: % Inh.
[5] abbreviates: dose 20 μ/ml, subs. con. 2, read-out: % Inh.
The mark [6] stands for this setting: dose 10 μ/ml, preincubation, read-out: % Inh.
Where [7] appears, read: dose 10 μ/ml, preincubation, read-out: % Inh. Avg.
Where [8] appears, read: dose 20 μ/ml, preincubation, read-out: % Inh.
Setting [9] is: dose 25 μ/ml, subs. con. 2, read-out: % Inh.

pIC50: −log10 of the molar value. Where “and” joins values, the source holds several entries; their conditions need not be identical. Identical values can stand only once. Counter-ions that a name gives are not always drawn.

Results on eleven molecules are retold here after US5208223A, “Phosphocholine derivative inhibitors of phospholipase A2” (American Cyanamid Company, priority 1992, dated 1993).

By pIC50 is commonly meant −log10 of the IC50, conventionally taken in molar units. A lower pIC50 goes with a high IC50. For orientation: IC50 means the concentration that gives 50% inhibition.

T1 sequence (P00592 23-146): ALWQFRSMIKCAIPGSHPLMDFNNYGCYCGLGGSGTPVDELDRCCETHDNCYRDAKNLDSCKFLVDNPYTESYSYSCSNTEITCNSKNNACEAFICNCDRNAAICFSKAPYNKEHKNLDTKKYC

On to `CCCCCCCCCCCCCCCCOCC(COP(=O)([O-])OCC[N+](C)(C)C)CP(=O)(OCC)OCC` (stereo not drawn), for which the inhibition at 10 µg/mL on porcine pancreatic PLA2 [1] (setting [4]) was determined as 36%; on porcine pancreatic PLA2 [2] (setting [6]), 71%; on porcine pancreatic PLA2 [2] (setting [7]), 74%; on porcine pancreatic PLA2 [3] (dose 10 μ/ml) it was 18%. For the same molecule, the inhibition at 20 µg/mL is 60% at porcine pancreatic PLA2 [1] (setting [5]), 81% on porcine pancreatic PLA2 [2] (setting [8]) and 44% against porcine pancreatic PLA2 [3]. In addition, the pIC50 on porcine pancreatic PLA2 [1] (subs. con. 2) is 4.56. In addition, the IC50 was 8.12 µM on porcine pancreatic PLA2 [2] (preincubation); 91.3 µM and 265 µM at porcine pancreatic PLA2 [3]. The inhibition at 25 µg/mL at porcine pancreatic PLA2 [3] (dose 25 μ/ml) came out at 45%.
Consider `CCCCCOCC(COP(=O)([O-])OCC[N+](C)(C)C)OP(=O)(OC)OCCCCC` (single isomer, unassigned; more polar) [3,5,8,10-Tetraoxa-4,9 diphosphapentadecan-1-aminium, 4-hydroxy-9-methoxy-N,N,N-trimethyl-7-[(pentyloxy)methyl]-, hydroxide, inner salt, 4,9-dioxide, more polar isomer], for which the “% Inh.” value on porcine pancreatic PLA2 [1] (dose 25 μ/ml, subs. con. 2) is listed as “STIM”. Further, the inhibition at 10 µg/mL at porcine pancreatic PLA2 [2] (setting [6]) turned out to be 5%. Further, the inhibition at 20 µg/mL on porcine pancreatic PLA2 [2] (setting [8]) was 11%. In addition, the inhibition at 25 µg/mL on porcine pancreatic PLA2 [3] (dose 25 μ/ml) stood at 0%.
The matching figures for `CCCCCOCC(COP(=O)([O-])OCC[N+](C)(C)C)OP(=O)(O)OCCCCC` (single isomer, unassigned; less polar) [3,5,8,10-Tetraoxa-4,9-diphosphapentadecan-1-aminium, 4,9-dihydroxy-N,N,N-trimethyl-7-[(pentyloxy)methyl]-, hydroxide, 4-(inner salt), 4,9-dioxide, less polar isomer]: “STIM”, 20%, 17% and 12%.
In the case of `CCCCCCCCCCCCCCCCCC(=O)NCC(CO)COCCCCCCCCCCCCCCCC` (stereo not drawn) [N-[3-(Hexadecyloxy)-2-hydroxymethyl)propyl]octadecanamide], the inhibition at 25 µg/mL at porcine pancreatic PLA2 [1] (setting [9]) was 93%; on porcine pancreatic PLA2 [2] (dose 25 μ/ml, preincubation, read-out: % Inh.) it was 93%; at porcine pancreatic PLA2 [3] (dose 25 μ/ml), 35%. For the same molecule, the inhibition at 20 µg/mL on porcine pancreatic PLA2 [2] (setting [8]) was 24%.
For `C=C(CC(COCCCCCCCCCCCCCCCC)COP(=O)([O-])OCC[N+](C)(C)C)C(F)(F)CCCCCCCCCCCCCCCC` (stereo not drawn) [3,5,9-Trioxa-4-phosphapentacosan-1-aminium, 7-(3,3-difluoro-2-methylenenonadecyl)-4-hydroxy-N,N,N-trimethyl-, hydroxide, inner salt, 4-oxide], the inhibition at 25 µg/mL on porcine pancreatic PLA2 [1] (setting [9]) was 80%; at porcine pancreatic PLA2 [3] (dose 25 μ/ml), 11%. Further, at porcine pancreatic PLA2 [2] (setting [6]), the inhibition at 10 µg/mL was 38%. Also, the inhibition at 20 µg/mL on porcine pancreatic PLA2 [2] (setting [8]) was found to be 38%.
With `CCCCCCCCCCCCCCCCS(=O)(=O)CCCOP(=O)([O-])OCC[N+](C)(C)C` [4-Hydroxy-N,N,N-trimethyl-3,5-dioxa-9-thia-4-phosphapentacosan-1-aminium, hydroxide, inner salt, 4.9.9-trioxide], the inhibition at 10 µg/mL was found to be 24% at porcine pancreatic PLA2 [1] (setting [4]), 65% on porcine pancreatic PLA2 [2] (setting [6]), 69% on porcine pancreatic PLA2 [2] (setting [7]) and 0% on porcine pancreatic PLA2 [3] (dose 10 μ/ml). Moreover, the inhibition at 20 µg/mL at porcine pancreatic PLA2 [1] (setting [5]) is 62%; at porcine pancreatic PLA2 [2] (setting [8]), 88%; on porcine pancreatic PLA2 [3] it was 19%. For the same molecule, at porcine pancreatic PLA2 [1] (subs. con. 2), the pIC50 is 4.43. For the same molecule, the IC50 at porcine pancreatic PLA2 [2] (preincubation) was 9.54 µM; on porcine pancreatic PLA2 [3] it was 121 µM. Moreover, on porcine pancreatic PLA2 [3] (dose 25 μ/ml), the inhibition at 25 µg/mL came to 24%.
For the molecule `CCCCCCCCCCCCCCCC[C@]1(COP(=O)([O-])OCC[N+](C)(C)C)CC(=O)N1` [(2R)-2-[[[(2-Hexadecyl-4-oxo-2-azetidinyl)methoxy]hydroxyphosphinyl]oxy]-N,N,N-trimethylethanaminium, hydroxide, inner salt], the “% Inh.” value on porcine pancreatic PLA2 [1] (dose 10 μ/ml, subs. con. 2) is recorded as “STIM”; on porcine pancreatic PLA2 [1] (dose 20 μ/ml, subs. con. 2) it was “STIM”; on porcine pancreatic PLA2 [3] (dose 10 μ/ml), “STIM”. In addition, the inhibition at 10 µg/mL on porcine pancreatic PLA2 [2] (setting [6]) amounted to 82%. Besides, the inhibition at 20 µg/mL at porcine pancreatic PLA2 [2] (setting [8]) was 79%; against porcine pancreatic PLA2 [3], 0%. Besides, at porcine pancreatic PLA2 [2] (preincubation), the IC50 is 2.85 µM. Also, the inhibition at 25 µg/mL at porcine pancreatic PLA2 [3] (dose 25 μ/ml) is 26%.
As to `CCCCCCCCCCCCCCCCOCC(COP(=O)([O-])OCC[N+](C)(C)C)COP(=O)(Oc1ccccc1)Oc1ccccc1` (stereo not drawn) [4-[(Hexadecyloxy)methyl]-7-hydroxy-N,N,N-trimethyl-1,1-diphenoxy-2.6.8 trioxa-1.7-diophosphadecan-10-aminium, hydroxide, inner salt, 1,7-dioxide], the “% Inh.” value at porcine pancreatic PLA2 [1] (dose 25 μ/ml, subs. con. 2) is 62% and 97%; on porcine pancreatic PLA2 [2] (dose 10 μ/ml, preincubation) it was 75%; on porcine pancreatic PLA2 [2] (dose 20 μ/ml, preincubation) it was 85%; on porcine pancreatic PLA2 [3] (dose 25 μ/ml) it was 33%. Also, the “% Inh. Avg.” value on porcine pancreatic PLA2 [1] (dose 25 μ/ml, subs. con. 2) is reported as 79%. The pIC50 against porcine pancreatic PLA2 [2] (IC50, preincubation) was 5.18.
`CCCCCCCCCCCCCCCC[S+]([O-])CCCOP(=O)([O-])OCC[N+](C)(C)C` (stereo not drawn) [4-Hydroxy-N,N,N-trimethyl-3,5-dioxa-9-thia-4-phosphapentacosan-1-aminium, hydroxide, inner salt, 4.9-dioxide]: the inhibition at 25 µg/mL on porcine pancreatic PLA2 [1] (setting [9]) came out at 68%; at porcine pancreatic PLA2 [1] (dose 25 μ/ml, subs. con. 2, read-out: % Inh. Avg.), 71%; at porcine pancreatic PLA2 [3] (dose 25 μ/ml), 16%. The inhibition at 10 µg/mL at porcine pancreatic PLA2 [2] (setting [6]) came to 59%; on porcine pancreatic PLA2 [2] (setting [7]), 61%. Also, on porcine pancreatic PLA2 [2] (setting [8]), the inhibition at 20 µg/mL is 82%. At porcine pancreatic PLA2 [2] (preincubation), the IC50 was 12.5 µM.
`CCCCCCCCCCCCCCCCC#CCC(COCCCCCCCCCCCCCCCC)COP(=O)([O-])OCC[N+](C)(C)C` (stereo not drawn) [7-(2-Nonadecynyl)-4-hydroxy-N,N,N-trimethyl-3,5,9-trioxa-4-phosphapentacosan-1-aminium, hydroxide, inner salt, 4-oxide]: the inhibition at 25 µg/mL came to 65% on porcine pancreatic PLA2 [1] (setting [9]) and 16% at porcine pancreatic PLA2 [3] (dose 25 μ/ml). Besides, the inhibition at 10 µg/mL on porcine pancreatic PLA2 [2] (setting [6]) turned out to be 57%. Also, the inhibition at 20 µg/mL on porcine pancreatic PLA2 [2] (setting [8]) was 60%. In addition, the IC50 on porcine pancreatic PLA2 [2] (preincubation) is 6.73 µM.
The matching figures for `CCCCCCCCCCCCCCCCOCC(COP(=O)([O-])OCC[N+](C)(C)C)CC(=O)C(=O)CCCCCCCCCCCCCCCC` (stereo not drawn) [7-(2,3-Dioxononadecyl)-4-hydroxy-N,N,N-trimethyl-3,5,9-trioxa-4-phosphapentacosan-1-aminium, hydroxide, inner salt, 4-oxide]: 25%, 0%, 61%, 61% and 7.1 µM.
